This passage reports AC50 results from ChEMBL document CHEMBL5291721, “A preclinical secondary pharmacology resource illuminates target-adverse drug reaction associations of marketed drugs” (Nat Commun, 2023).

One experiment deals with T1, Adenosine receptor A3 (Homo sapiens, UniProt P0DMS8).
T1 sequence (P0DMS8 whole entry): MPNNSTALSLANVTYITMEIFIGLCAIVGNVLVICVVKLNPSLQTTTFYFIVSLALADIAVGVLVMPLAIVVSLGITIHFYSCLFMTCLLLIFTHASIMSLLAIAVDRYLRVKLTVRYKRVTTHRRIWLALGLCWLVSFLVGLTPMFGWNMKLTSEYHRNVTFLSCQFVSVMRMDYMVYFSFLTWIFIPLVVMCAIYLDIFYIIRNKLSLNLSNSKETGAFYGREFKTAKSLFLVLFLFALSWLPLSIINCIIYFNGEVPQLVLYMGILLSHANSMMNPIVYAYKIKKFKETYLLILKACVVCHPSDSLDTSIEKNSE

The target in experiment [1] is Gamma-aminobutyric acid receptor subunit alpha-1/alpha-2/beta-2/gamma-2 (Homo sapiens, UniProt P14867+P18507+P47869+P47870). In kind it is protein-complex assay.
Sequence of Gamma-aminobutyric acid receptor subunit alpha-1/alpha-2/beta-2/gamma-2 (P14867 whole entry): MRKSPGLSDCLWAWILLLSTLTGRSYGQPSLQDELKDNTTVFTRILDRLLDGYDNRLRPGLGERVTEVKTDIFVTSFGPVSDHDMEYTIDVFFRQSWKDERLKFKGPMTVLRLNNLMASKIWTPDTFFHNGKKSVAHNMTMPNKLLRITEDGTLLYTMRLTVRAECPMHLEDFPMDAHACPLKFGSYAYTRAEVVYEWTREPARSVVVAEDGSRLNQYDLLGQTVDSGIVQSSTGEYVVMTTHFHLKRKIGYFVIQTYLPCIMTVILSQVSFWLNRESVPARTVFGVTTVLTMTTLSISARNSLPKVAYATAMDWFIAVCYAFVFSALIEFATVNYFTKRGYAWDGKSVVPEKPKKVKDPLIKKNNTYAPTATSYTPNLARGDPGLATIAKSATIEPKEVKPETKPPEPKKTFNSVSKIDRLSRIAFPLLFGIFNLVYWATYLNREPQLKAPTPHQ
Sequence of Gamma-aminobutyric acid receptor subunit alpha-1/alpha-2/beta-2/gamma-2 (P47870 whole entry): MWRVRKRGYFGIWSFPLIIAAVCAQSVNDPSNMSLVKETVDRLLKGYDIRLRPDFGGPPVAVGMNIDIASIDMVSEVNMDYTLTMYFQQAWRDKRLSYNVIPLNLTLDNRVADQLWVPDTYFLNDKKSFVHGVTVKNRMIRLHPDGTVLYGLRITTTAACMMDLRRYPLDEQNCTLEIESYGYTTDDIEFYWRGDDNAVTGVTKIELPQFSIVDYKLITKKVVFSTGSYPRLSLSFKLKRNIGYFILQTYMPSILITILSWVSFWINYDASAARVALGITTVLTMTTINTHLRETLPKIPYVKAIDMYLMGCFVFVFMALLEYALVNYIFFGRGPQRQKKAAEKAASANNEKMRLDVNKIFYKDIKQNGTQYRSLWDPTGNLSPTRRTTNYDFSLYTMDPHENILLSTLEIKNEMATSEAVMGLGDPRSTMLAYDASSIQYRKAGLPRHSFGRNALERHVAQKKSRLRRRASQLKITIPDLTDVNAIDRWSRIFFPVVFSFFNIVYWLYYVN
Sequence of Gamma-aminobutyric acid receptor subunit alpha-1/alpha-2/beta-2/gamma-2 (P18507 whole entry): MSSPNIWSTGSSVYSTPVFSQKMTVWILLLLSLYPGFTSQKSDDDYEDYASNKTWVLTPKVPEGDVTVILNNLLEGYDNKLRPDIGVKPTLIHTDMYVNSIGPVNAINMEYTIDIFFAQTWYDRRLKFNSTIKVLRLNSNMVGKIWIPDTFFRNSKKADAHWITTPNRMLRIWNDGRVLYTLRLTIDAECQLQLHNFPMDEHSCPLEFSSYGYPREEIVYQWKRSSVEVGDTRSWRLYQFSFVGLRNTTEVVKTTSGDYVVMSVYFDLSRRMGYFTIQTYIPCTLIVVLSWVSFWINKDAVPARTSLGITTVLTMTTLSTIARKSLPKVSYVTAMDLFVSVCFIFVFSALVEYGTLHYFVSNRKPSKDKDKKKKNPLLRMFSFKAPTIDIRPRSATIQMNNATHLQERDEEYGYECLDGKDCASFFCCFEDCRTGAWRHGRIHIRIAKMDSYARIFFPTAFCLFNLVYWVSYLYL
Sequence of Gamma-aminobutyric acid receptor subunit alpha-1/alpha-2/beta-2/gamma-2 (P47869 whole entry): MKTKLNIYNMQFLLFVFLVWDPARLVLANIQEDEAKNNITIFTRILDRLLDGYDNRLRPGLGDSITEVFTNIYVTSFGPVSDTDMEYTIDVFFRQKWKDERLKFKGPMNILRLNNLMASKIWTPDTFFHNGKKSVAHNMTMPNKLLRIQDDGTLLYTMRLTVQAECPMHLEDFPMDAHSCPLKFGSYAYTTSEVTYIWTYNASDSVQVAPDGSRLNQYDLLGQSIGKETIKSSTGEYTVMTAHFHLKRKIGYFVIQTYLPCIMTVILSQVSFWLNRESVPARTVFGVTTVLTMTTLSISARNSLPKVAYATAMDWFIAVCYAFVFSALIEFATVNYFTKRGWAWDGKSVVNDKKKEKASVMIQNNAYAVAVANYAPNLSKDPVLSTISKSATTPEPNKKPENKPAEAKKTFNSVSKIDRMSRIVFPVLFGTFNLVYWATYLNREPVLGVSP
A further experiment concerns the target Histamine H3 receptor (Homo sapiens, UniProt Q9Y5N1).
The target of experiment [2] is Sodium-dependent serotonin transporter (Homo sapiens, UniProt P31645).
Sequence of Sodium-dependent serotonin transporter (P31645 whole entry): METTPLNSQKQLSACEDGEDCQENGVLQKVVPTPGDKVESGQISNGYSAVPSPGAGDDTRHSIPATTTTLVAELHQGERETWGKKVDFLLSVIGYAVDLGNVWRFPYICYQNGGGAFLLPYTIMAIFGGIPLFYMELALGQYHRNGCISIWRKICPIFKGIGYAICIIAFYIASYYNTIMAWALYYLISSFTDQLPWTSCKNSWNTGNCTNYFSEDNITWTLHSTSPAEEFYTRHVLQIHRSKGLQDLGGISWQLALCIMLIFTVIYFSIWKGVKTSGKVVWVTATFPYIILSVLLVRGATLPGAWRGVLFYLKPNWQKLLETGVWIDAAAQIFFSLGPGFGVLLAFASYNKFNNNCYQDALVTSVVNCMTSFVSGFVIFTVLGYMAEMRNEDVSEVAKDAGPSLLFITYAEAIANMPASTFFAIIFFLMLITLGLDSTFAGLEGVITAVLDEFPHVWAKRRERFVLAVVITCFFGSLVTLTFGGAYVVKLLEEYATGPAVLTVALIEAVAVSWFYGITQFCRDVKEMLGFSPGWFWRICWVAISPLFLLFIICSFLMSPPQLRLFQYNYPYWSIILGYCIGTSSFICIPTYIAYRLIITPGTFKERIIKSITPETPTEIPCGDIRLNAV
The target in the next experiment is T2, Thromboxane A2 receptor (Homo sapiens, UniProt P21731).
T2 sequence (P21731 whole entry): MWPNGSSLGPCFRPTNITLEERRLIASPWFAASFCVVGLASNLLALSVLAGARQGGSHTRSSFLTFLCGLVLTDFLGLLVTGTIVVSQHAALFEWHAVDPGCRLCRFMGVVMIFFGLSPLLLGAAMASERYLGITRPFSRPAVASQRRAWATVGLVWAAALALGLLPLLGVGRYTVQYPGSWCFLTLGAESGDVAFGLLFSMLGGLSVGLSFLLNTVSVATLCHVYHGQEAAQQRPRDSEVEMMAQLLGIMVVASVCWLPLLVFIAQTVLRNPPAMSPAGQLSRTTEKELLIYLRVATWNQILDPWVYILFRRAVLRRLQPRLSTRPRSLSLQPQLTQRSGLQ
In kind it is functional, cell-based.

For experiment [3], the target named is 5-hydroxytryptamine receptor 2B (Homo sapiens, UniProt P41595).
Sequence of 5-hydroxytryptamine receptor 2B (P41595 whole entry): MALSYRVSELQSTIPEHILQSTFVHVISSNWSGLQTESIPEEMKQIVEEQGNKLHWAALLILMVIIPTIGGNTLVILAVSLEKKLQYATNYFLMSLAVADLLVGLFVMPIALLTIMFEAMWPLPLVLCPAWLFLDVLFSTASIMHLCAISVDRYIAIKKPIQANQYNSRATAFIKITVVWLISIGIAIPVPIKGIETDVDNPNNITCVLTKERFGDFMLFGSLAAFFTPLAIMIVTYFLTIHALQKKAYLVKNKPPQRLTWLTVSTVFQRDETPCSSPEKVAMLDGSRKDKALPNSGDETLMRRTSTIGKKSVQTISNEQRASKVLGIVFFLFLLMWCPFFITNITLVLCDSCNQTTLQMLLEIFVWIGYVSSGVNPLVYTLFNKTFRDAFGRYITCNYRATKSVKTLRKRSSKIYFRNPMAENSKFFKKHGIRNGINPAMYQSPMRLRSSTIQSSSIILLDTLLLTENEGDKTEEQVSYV
The next experiment addresses Mu-type opioid receptor (Homo sapiens, UniProt P35372). Nature of the experiment: biochemical. The experiment is classed as functional.
Experiment [4] addresses T3, Endothelin receptor type B (Homo sapiens, UniProt P24530).
T3 sequence (P24530 whole entry): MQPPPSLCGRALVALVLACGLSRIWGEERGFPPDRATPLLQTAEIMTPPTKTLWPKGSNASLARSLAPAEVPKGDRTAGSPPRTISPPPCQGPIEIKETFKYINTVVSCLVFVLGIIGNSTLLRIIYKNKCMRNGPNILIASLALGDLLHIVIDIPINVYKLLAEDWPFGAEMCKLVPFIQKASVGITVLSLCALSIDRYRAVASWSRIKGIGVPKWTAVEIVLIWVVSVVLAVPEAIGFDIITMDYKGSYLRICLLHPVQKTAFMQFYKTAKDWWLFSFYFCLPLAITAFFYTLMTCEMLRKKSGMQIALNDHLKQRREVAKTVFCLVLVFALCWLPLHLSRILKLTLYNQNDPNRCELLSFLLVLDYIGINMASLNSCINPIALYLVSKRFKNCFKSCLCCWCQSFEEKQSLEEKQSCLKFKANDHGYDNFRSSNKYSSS

Experiment [5] has as its target T4, Gastric inhibitory polypeptide receptor (Homo sapiens, UniProt P48546).
T4 sequence (P48546 whole entry): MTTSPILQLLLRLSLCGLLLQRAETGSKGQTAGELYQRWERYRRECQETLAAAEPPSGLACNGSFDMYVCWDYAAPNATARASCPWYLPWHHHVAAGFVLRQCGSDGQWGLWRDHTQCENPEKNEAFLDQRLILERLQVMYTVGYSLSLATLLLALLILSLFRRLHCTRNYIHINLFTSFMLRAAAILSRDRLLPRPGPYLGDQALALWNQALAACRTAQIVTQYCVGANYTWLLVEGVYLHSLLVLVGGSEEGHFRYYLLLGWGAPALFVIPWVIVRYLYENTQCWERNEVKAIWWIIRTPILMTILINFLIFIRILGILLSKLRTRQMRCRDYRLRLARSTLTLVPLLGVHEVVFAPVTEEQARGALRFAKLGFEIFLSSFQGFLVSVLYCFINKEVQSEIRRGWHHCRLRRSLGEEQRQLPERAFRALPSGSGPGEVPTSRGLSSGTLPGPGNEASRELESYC

Experiment [6] addresses T5, Neuropeptide Y receptor type 2 (Homo sapiens, UniProt P49146).
T5 sequence (P49146 whole entry): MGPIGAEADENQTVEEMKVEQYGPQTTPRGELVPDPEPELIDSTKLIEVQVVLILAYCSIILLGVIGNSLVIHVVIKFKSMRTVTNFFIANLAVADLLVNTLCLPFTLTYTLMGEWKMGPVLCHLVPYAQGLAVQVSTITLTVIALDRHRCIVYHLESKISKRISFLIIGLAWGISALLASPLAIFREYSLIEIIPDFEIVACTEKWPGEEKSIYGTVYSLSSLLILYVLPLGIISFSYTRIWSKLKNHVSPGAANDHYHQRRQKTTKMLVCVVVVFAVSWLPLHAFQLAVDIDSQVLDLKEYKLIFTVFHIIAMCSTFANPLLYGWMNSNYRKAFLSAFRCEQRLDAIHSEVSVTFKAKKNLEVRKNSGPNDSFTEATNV

Experiment [7] deals with Neurotensin receptor type 1 (Homo sapiens, UniProt P30989).
Sequence of Neurotensin receptor type 1 (P30989 whole entry): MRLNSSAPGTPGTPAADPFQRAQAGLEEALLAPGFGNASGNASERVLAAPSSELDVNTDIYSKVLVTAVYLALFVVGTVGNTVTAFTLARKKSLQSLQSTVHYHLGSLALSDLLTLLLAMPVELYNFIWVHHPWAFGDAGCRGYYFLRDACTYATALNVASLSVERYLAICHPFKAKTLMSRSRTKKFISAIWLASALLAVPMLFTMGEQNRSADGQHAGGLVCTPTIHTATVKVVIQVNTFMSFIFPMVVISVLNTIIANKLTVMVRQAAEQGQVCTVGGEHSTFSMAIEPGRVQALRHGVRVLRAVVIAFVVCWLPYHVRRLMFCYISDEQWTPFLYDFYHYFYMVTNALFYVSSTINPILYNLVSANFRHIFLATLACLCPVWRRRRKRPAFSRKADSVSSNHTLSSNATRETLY
Experiment [8] concerns the target T6, Alpha-1A adrenergic receptor (Homo sapiens, UniProt P35348).
T6 sequence (P35348 whole entry): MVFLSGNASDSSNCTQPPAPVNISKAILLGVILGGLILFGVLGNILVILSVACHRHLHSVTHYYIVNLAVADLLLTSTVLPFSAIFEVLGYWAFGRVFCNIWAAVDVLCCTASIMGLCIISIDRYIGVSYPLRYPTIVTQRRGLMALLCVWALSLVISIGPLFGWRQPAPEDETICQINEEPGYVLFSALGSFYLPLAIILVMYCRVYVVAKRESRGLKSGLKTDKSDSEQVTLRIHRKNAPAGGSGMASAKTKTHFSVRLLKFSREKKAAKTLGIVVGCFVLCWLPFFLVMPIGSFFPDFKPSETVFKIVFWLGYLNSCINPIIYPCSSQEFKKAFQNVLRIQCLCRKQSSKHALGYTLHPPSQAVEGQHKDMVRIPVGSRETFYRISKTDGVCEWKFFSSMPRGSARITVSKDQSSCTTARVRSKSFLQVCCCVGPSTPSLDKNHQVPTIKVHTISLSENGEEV

Experiment [9] has as its target Gamma-aminobutyric acid receptor subunit alpha-1 (Rattus norvegicus, UniProt P62813).
Also: assay procedure not described here.

Sequence of Mu-type opioid receptor (P35372 whole entry): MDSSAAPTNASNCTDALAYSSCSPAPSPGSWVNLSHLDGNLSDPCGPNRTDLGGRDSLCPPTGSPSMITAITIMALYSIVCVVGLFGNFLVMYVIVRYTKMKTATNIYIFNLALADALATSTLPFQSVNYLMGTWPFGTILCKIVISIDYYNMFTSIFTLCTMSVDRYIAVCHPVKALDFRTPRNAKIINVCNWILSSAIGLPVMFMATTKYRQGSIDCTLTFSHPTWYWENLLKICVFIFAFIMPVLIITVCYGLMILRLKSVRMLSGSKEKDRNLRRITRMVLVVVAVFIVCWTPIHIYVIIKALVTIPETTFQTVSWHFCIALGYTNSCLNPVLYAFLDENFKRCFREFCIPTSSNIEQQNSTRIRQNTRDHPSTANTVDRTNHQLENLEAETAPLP
Sequence of Gamma-aminobutyric acid receptor subunit alpha-1 (P62813 whole entry): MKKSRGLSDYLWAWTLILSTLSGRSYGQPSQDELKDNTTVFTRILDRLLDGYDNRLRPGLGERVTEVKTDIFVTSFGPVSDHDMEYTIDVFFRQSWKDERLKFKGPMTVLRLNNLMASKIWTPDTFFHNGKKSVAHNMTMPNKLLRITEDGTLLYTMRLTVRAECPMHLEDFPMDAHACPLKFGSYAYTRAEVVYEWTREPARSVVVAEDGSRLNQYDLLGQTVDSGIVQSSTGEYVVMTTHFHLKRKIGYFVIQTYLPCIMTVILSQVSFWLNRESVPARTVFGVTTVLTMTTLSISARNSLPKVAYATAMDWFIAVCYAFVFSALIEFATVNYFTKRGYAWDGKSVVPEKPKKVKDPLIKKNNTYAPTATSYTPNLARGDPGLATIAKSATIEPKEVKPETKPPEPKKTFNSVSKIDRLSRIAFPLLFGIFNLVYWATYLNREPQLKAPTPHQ
Sequence of Histamine H3 receptor (Q9Y5N1 whole entry): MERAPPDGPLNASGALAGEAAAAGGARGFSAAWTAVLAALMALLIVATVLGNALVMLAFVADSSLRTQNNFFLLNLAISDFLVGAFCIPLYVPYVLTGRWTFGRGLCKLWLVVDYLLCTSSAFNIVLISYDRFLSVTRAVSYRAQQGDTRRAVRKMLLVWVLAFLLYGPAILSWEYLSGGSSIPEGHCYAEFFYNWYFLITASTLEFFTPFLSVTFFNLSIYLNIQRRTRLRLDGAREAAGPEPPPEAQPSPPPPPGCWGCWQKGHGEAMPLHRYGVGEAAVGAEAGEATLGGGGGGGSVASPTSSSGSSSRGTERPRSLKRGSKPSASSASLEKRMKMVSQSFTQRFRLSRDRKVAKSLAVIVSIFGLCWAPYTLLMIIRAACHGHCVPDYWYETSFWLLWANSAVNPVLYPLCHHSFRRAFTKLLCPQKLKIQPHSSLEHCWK

Consider `CCC(=O)O[C@]1(C(=O)CCl)[C@@H](C)C[C@H]2[C@@H]3C[C@H](F)C4=CC(=O)C=C[C@]4(C)[C@@]3(F)[C@@H](O)C[C@@]21C` [HALOBETASOL PROPIONATE], for which the AC50 on Adenosine receptor A3 is 19.7 µM; in [1], more than 30 µM; at Histamine H3 receptor, more than 30 µM; in experiment [2], more than 30 µM; on Thromboxane A2 receptor, more than 30 µM.

For the compound `CCOC(=O)N1CSC[C@H]1C(=O)O` [TELMESTEINE], the AC50 (at Adenosine receptor A3; in experiment [1]; at Histamine H3 receptor; in experiment [2]; on Thromboxane A2 receptor) was more than 30 µM throughout.

Take `Cc1ncc(COP(=O)(O)O)c(C=O)c1O` [PYRIDOXAL PHOSPHATE ANHYDROUS]: the AC50 (at Adenosine receptor A3; in experiment [1]; at Histamine H3 receptor; in experiment [2]; at Thromboxane A2 receptor) was more than 30 µM each time.

As for `CCOC(=O)C1=C[C@]2(CC)CCCN3CCc4c(n1c1ccccc41)[C@@H]32` [VINPOCETINE], the AC50 (in experiment [3]; on Mu-type opioid receptor) was more than 30 µM each time.

Turning to `CCCc1nc(C(C)(C)O)c(C(=O)O)n1Cc1ccc(-c2ccccc2-c2nnn[nH]2)cc1` [OLMESARTAN], the AC50 (at Adenosine receptor A3; in [1]; on Histamine H3 receptor; in experiment [2]; at Thromboxane A2 receptor) was more than 30 µM each time.

Consider `Cc1ccccc1N1CCN(CCc2nnc3n2CCCC3)CC1` [DAPIPRAZOLE], for which the concentration at half-maximal activity (AC50) (at Adenosine receptor A3; in [1]; at Histamine H3 receptor; on Thromboxane A2 receptor) was more than 30 µM throughout.

As for `O=C(O)c1cn(C2CC2)c2cc(N3CCNCC3)c(F)cc2c1=O` [CIPROFLOXACIN], the AC50 (in experiment [4]; in experiment [5]; in experiment [6]; in experiment [7]; on Thromboxane A2 receptor) was more than 30 µM each time.

Regarding `Oc1ccc2c(c1)CC[C@H](c1ccccc1)[C@@H]2c1ccc(OCCN2CCCC2)cc1` [LASOFOXIFENE], the AC50 in [3] was 0.272 µM; at Mu-type opioid receptor, more than 30 µM.

In the case of `CCC[C@H](NC(=O)[C@@H]1[C@H]2CCC[C@H]2CN1C(=O)[C@@H](NC(=O)[C@@H](NC(=O)c1cnccn1)C1CCCCC1)C(C)(C)C)C(=O)C(=O)NC1CC1`, the AC50 in [8] and in experiment [3] was more than 10 µM in each case.

Regarding `COc1cc(N)c(Cl)cc1C(=O)NC1CCN(Cc2ccccc2)CC1` [CLEBOPRIDE], the AC50 was 0.0079 µM in [3] and more than 30 µM at Mu-type opioid receptor.

`Cc1c(N(C)CS(=O)(=O)O)c(=O)n(-c2ccccc2)n1C` [METAMIZOLE]: the AC50 (at Adenosine receptor A3; in experiment [1]; at Histamine H3 receptor; on Thromboxane A2 receptor) was more than 30 µM throughout.

For the compound `COC(=O)c1ccc(O)cc1` [METHYLPARABEN], the AC50 (at Adenosine receptor A3; in experiment [1]; on Histamine H3 receptor; on Thromboxane A2 receptor) was more than 30 µM each time.

Regarding `C[C@H](Cc1cc2c(c(C(N)=O)c1)N(CCCO)CC2)NCCOc1ccccc1OCC(F)(F)F` [SILODOSIN], the AC50 (at Adenosine receptor A3; in experiment [1]; on Histamine H3 receptor; in [2]; at Thromboxane A2 receptor) was more than 30 µM in each case.

For the compound `CN(C)CCOC(c1ccccc1)c1ccc(Br)cc1` (centres undefined) [BROMODIPHENHYDRAMINE], the AC50 at Adenosine receptor A3 was more than 30 µM; in experiment [9], more than 30 µM; on Histamine H3 receptor it was more than 30 µM; in experiment [2] it was 0.207 µM; on Thromboxane A2 receptor, more than 30 µM.

For `CCN(CCCc1ccccc1)CCCc1ccccc1` [ALVERINE], the AC50 is more than 30 µM at Adenosine receptor A3; more than 30 µM in experiment [1]; more than 30 µM on Histamine H3 receptor; 1.7 µM in experiment [2]; more than 30 µM at Thromboxane A2 receptor.

`c1ccc2c(c1)CCc1ccccc1N2C1CN2CCC1CC2` (centres undefined) [QUINUPRAMINE]: the AC50 at Adenosine receptor A3 was more than 30 µM; in experiment [1] it was more than 30 µM; on Histamine H3 receptor, more than 30 µM; in [2], 0.507 µM; at Thromboxane A2 receptor, more than 30 µM.

As for `Cc1cc(N)c2ccccc2[n+]1CCCCCCCCCC[n+]1c(C)cc(N)c2ccccc21`, the AC50 was 8.73 µM on Adenosine receptor A3; 24.6 µM in [9]; 0.0813 µM on Histamine H3 receptor; 0.185 µM in [2]; more than 30 µM at Thromboxane A2 receptor.

Turning to `CC(C)(C)NC[C@H](O)COc1cccc2c1CCCC2=O` [LEVOBUNOLOL], the AC50 (on Adenosine receptor A3; in experiment [1]; at Histamine H3 receptor; at Thromboxane A2 receptor) was more than 30 µM throughout.

As to `CC1=CCC(C(C)(C)O)CC1O` (centres undefined) [SOBREROL], the AC50 (on Adenosine receptor A3; in [1]; on Histamine H3 receptor; in experiment [2]; on Thromboxane A2 receptor) was more than 30 µM in each case.

On to `Cc1cc(C(C)(C)C)cc(C)c1CC1=NCCN1` [XYLOMETAZOLINE], for which the AC50 was 1.27 µM in experiment [8], 1.56 µM in experiment [3] and more than 30 µM at Mu-type opioid receptor.

`CN(C)CCCNc1c2ccccc2nc2cccc([N+](=O)[O-])c12` [NITRACRINE]: the AC50 was 0.2 µM in experiment [3] and more than 30 µM at Mu-type opioid receptor.

Regarding `CCOC(=O)[C@H](CCc1ccccc1)N[C@@H](C)C(=O)N(CC(=O)O)C1Cc2ccccc2C1`, the AC50 (on Adenosine receptor A3; in experiment [9]; at Histamine H3 receptor; in experiment [2]; on Thromboxane A2 receptor) was more than 30 µM throughout.

As for `CC(C)N(CCNC(=O)CN1CCCC1=O)C(C)C`, the AC50 (on Adenosine receptor A3; in experiment [1]; at Histamine H3 receptor; in experiment [2]; at Thromboxane A2 receptor) was more than 30 µM in each case.
